Article PMC3834219 (Plant molecular biology, 2013)

Target: T1, GmPP2C1 (Glycine max, UniProt K7LYY2)
T1 sequence (K7LYY2 1-536): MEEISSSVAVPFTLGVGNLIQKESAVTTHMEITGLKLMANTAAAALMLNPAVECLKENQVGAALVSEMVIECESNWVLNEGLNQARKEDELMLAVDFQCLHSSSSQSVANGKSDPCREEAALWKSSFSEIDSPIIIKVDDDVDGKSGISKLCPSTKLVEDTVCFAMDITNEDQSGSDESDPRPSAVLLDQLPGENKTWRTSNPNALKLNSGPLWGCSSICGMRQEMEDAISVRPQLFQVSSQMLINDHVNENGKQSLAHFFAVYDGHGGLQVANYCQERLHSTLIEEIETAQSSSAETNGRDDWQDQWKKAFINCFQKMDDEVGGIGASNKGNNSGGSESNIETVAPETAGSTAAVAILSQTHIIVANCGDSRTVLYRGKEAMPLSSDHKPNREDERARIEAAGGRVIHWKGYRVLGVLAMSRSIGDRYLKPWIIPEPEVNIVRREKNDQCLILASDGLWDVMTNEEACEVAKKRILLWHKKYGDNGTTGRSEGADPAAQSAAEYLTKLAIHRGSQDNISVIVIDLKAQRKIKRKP
Experiment: pNPP hydrolysis at […] nm
Assay type: biochemical
Conditions: 1 μM His-GmPP2C1, 50 mM pNPP, pH 7.5, 25 mM Mg(OAc)2, 2 mM MnCl2

## O=[N+]([O-])c1ccc(OP(=O)(O)O)cc1 [p-nitrophenyl phosphate]
  pNPP hydrolysis at 405 nm: GmPP2C1 phosphatase activity was measured using the colorimetric substrate p-nitrophenyl phosphate (pNPP, Sigma)
